Experimental data: patent publication US10808007B2, “Desacetoxytubulysin H and analogs thereof” (WILLIAM MARSH RICE UNIVERSITY, priority 2015, dated 2020)
pIC50: −log10 of the molar value. Like-named read-outs stand apart in the source and are kept apart here.

How the values were obtained:
Type in all cases: cell-based
[1] = tested on: MES SA (uterine sarcoma cells); experiment: Cytotoxic assay (CellTiter-Glo, 72 h), MES SA; settings: Homo sapiens, MES-SA, read-out: IC50 MES SA
CNS cancer cell lines = experiment: NCI-60 cytotoxicity, CNS cancer; settings: Homo sapiens
Experimental: (§1) A number of the synthesized compounds (i.e. Tb1-Tb23) were evaluated for their activity against a variety of cancer cell lines, namely the NCI-60 human cancer cell line panel representing leukemia, melanoma, lung, colon, brain, ovary, breast, prostate and kidney types of cancer through the In Vitro Cell Line Screening Project (IVCLSP) of the National Cancer Institute (NCI), and a summary of the results is shown in Table 1. […] As there was interest in the activity in certain other cell lines, these and the remaining compounds (Tb1-Tb41, PTb-D42 and PTb-D43) were subjected to further testing against MES SA (uterine sarcoma cells), MES SA DX (multidrug resistant uterine sarcoma cells), and HEK 293T (human embryonic kidney cells). […] Tubulysins are known to be substrates for Pgp pumps (Xiangming, et al., 2013; Kaur, et al., 2006; Szakacs, et al., 2006) as supported by the observed low activities of all tubulysins tested except Tb28, Tb32 and Tb33.

[2] = tested on: ovarian cancer cell lines; experiment: NCI-60 cytotoxicity, ovarian cancer; settings: Homo sapiens
Experimental: as §1

[3] = tested on: non-small cell lung cancer cell lines; experiment: NCI-60 cytotoxicity, non-small cell lung cancer; settings: Homo sapiens
Experimental: as §1

[4] = tested on: HEK 293T (human embryonic kidney cells); experiment: Cytotoxic assay (CellTiter-Glo, 72 h), HEK 293T; settings: Homo sapiens, HEK-293T, read-out: IC50 HEK 293T
melanoma cell lines = experiment: NCI-60 cytotoxicity, melanoma; settings: Homo sapiens
Experimental: as §1

colon cancer cell lines = experiment: NCI-60 cytotoxicity, colon cancer; settings: Homo sapiens
Experimental: as §1

[5] = tested on: prostate cancer cell lines; experiment: NCI-60 cytotoxicity, prostate cancer; settings: Homo sapiens
Experimental: as §1

[6] = tested on: MES SA DX (multidrug resistant uterine sarcoma cells); experiment: Cytotoxic assay (CellTiter-Glo, 72 h), MES SA DX; settings: Homo sapiens
[7] = tested on: leukemia cancer cell lines; experiment: NCI-60 cytotoxicity, leukemia; settings: Homo sapiens
Experimental: as §1

breast cancer cell lines = experiment: NCI-60 cytotoxicity, breast cancer; settings: Homo sapiens
Experimental: as §1

renal cancer cell lines = experiment: NCI-60 cytotoxicity, renal cancer; settings: Homo sapiens
Experimental: as §1

Structure (SMILES)	pIC50 ([1]; 72 h)	GI50 (CNS cancer cell lines; NCI-60, selected value) [nM]	GI50 ([2]; NCI-60, selected value) [nM]	GI50 ([3]; NCI-60, selected value) [nM]	pIC50 ([4]; 72 h)	GI50 (melanoma cell lines; NCI-60, selected value) [nM]	GI50 (colon cancer cell lines; NCI-60, selected value) [nM]	GI50 ([5]; NCI-60, selected value) [nM]	pIC50 [6]	GI50 ([7]; NCI-60, selected value) [nM]	GI50 (breast cancer cell lines; NCI-60, selected value) [nM]	GI50 (renal cancer cell lines; NCI-60, selected value) [nM]	also measured
CC[C@H](C)[C@H](NC(=O)Nc1ccccc1)C(=O)N(C)[C@H](C[C@@H](OC(C)=O)c1nc(C(=O)N[C@@H](Cc2ccccc2)C[C@H](C)C(=O)OC)cs1)C(C)C [Tb5, (2S,4R)-Methyl 4-(2-((1R,3R)-1-acetoxy-3-((2S,3S)—N,3-dimethyl-2-(3-phenylureido)pentanamido)-4-methylpentyl)thiazole-4-carboxamido)-2-methyl-5-phenylpentanoate]	< 7.30	> 1000	> 1000	> 1000	< 7.30	416	> 1000	> 1000	< 7.30	> 1000	514	> 1000	
COC(=O)[C@@H](C)C[C@H](Cc1ccccc1)NC(=O)c1csc([C@@H](C[C@H](C(C)C)N(C)C(=O)[C@@H](NC(=O)[C@H]2CCCCN2C)C2CC2)OC(C)=O)n1 [Tb20, Methyl (2S,4R)-4-(2-((1R,3R)-1-acetoxy-3-((S)-2-cyclopropyl-N-methyl-2-((R)-1-methylpiperidine-2-carboxamido)acetamido)-4-methylpentyl)thiazole-4-carboxamido)-2-methyl-5-phenylpentanoate]	10.34	0.345			10.33	0.035	0.263	0.211	> 6.70				pIC50 [1]: 10.34; GI50 (CNS cancer cell lines; NCI-60): 0.345 nM; GI50 ([2]; NCI-60): 0.049 nM; GI50 ([3]; NCI-60): 0.247 nM; pIC50 [4]: 10.33; GI50 (melanoma cell lines; NCI-60): 0.035 nM; GI50 (colon cancer cell lines; NCI-60): 0.263 nM; GI50 ([5]; NCI-60): 0.211 nM; GI50 ([7]; NCI-60): 0.098 nM; GI50 (breast cancer cell lines; NCI-60): 0.044 nM; GI50 (renal cancer cell lines; NCI-60): 0.27 nM
CC[C@H](C)[C@H](NC(=O)C12C3C4C1C1C2C3C41NC(C)=O)C(=O)N(C)[C@H](C[C@@H](OC(C)=O)c1nc(C(=O)N[C@@H](Cc2ccccc2)C[C@H](C)C(=O)OC)cs1)C(C)C (stereo partly drawn) [Tb9, Methyl(2S,4R)-4-(2-((R,3R)-3-((2S,3S)-2-(4-acetamidocubane-1-carboxamido)-N,3-dimethylpentan amido)-1-acetoxy-4-methylpentyl)thiazole-4-carboxamido)-2-methyl-5-phenylpentanoate]	< 7.30	246	61	83.6	< 7.30	46.6	331	459	< 7.30	24.2	53.2	238	
CNC12C3C4C1C1C2C3C41C(=O)N[C@H](C(=O)N(C)[C@H](C[C@@H](OC(C)=O)c1nc(C(=O)N[C@@H](Cc2ccccc2)C[C@H](C)C(=O)OC)cs1)C(C)C)C1CC1 (stereo partly drawn) [Tb23, Methyl (2S,4R)-4-(2-((1R,3R)-1-acetoxy-3-((S)-2-cyclopropyl-N-methyl-2-(4-(methylamino)cubane-1-carboxamido)acetamido)-4-methylpentyl)thiazole-4-carboxamido)-2-methyl-5-phenylpentanoate]	< 7.30	119	54.9	84.5	< 7.30	45.1	204	308	< 7.30	16.3	44.7	181	
CC[C@H](C)[C@H](NC(=O)c1ccccn1)C(=O)N(C)[C@H](C[C@@H](OC(C)=O)c1nc(C(=O)N[C@@H](Cc2ccccc2)C[C@H](C)C(=O)OC)cs1)C(C)C [Tb3, (2S,4R)-Methyl 4-(2-((1R,3R)-1-acetoxy-3-((2S,3S)—N,3-dimethyl-2-(picolinamido)pentanamido)-4-methylpentyl)thi-azole-4-carboxamido)-2-methyl-5-phenylpentanoate]	< 7.30	> 1000	> 1000	> 1000	< 7.30	> 1000	> 1000	> 1000	< 7.30	> 1000	> 1000	> 1000	
CC[C@H](C)[C@H](NC(=O)NC(C)(C)C)C(=O)N(C)[C@H](C[C@@H](OC(C)=O)c1nc(C(=O)N[C@@H](Cc2ccccc2)C[C@H](C)C(=O)OC)cs1)C(C)C [Tb6, Methyl (2S,4R)-4-(2-((6S,9R,1R)-6-((S)-sec-butyl)-9-isopropyl-2,2,8-trimethyl-4,7,13-trioxo-12-oxa-3,5,8-triazatetradecan-11-yl)thiazole-4-carboxamido)-2-methyl-5-phenylpentanoate]	< 7.30	439	127	164	< 7.30	83.9	339	689	< 7.30	286	71.4	154	
CC[C@H](C)[C@H](NC(=O)[C@H]1CCCCN1C)C(=O)N(C)[C@H](C[C@@H](OC(C)=O)c1nc(C(=O)N[C@@H](Cc2ccccc2)C[C@H](C)C(=O)O)cs1)C(C)C [Tb1, N^14-desacetoxytubulysin H]	9.47	0.305	0.234	0.347	10.70	0.074	0.269	0.339	< 8.00	0.264	0.147	0.548	pIC50 [1]: 9.47; pIC50 [4]: 10.70
COC(=O)[C@@H](C)C[C@H](Cc1ccccc1)NC(=O)c1csc([C@@H](C[C@H](C(C)C)N(C)C(=O)[C@@H](NC(=O)CN(C)C)C2CC2)OC(C)=O)n1 [Tb21, Methyl (2S,4R)-4-(2-((6S,9R,11R)-6-cyclopropyl-9-isopropyl-2,8-dimethyl-4,7,13-trioxo-12-oxa-2,5,8-triazatetradecan-11-yl)thiazole-4-carboxamido)-2-methyl-5-phenylpentanoate]	7.77	24.1	5.79	6.62	< 8.00	2.23	23.9	34.6	< 7.30	1.65	4.04	23.2	
CCC(C)[C@H](NC(=O)[C@H]1CCCCN1C)C(=O)N(C)[C@H](C[C@@H](OC(C)=O)c1nc(C(=O)NC23C4C5C2C2C3C4C52C(=O)OC)cs1)C(C)C (stereo in doubt) [Tb11, Methyl 4-(2-((1R,3R)-1-acetoxy-3-((2S,3S)—N,3-dimethyl-2-((R)-1-methylpiperidine-2-carboxamido)-pentanamido)-4-methylpentyl)thiazole-4-carboxamido)cubane-1-carboxylate]	9.08	1.15			9.59	0.349	1.14	1.13	< 7.30				GI50 (CNS cancer cell lines; NCI-60): 1.15 nM; GI50 ([2]; NCI-60): 0.489 nM; GI50 ([3]; NCI-60): 0.331 nM; GI50 (melanoma cell lines; NCI-60): 0.349 nM; GI50 (colon cancer cell lines; NCI-60): 1.14 nM; GI50 ([5]; NCI-60): 1.13 nM; GI50 ([7]; NCI-60): 0.159 nM; GI50 (breast cancer cell lines; NCI-60): 0.428 nM; GI50 (renal cancer cell lines; NCI-60): 0.768 nM
CC[C@H](C)[C@H](NC(=O)[C@H]1CCCCN1C)C(=O)N(C)[C@H](C[C@@H](OC(C)=O)c1nc(C(=O)N[C@@H](Cc2ccccc2)C[C@H](C)C(=O)OC)cs1)C(C)C [Tb2, Methyl (2S,4R)-4-(2-((1R,3R)-1-acetoxy-3-((2S,3S)—N,3-dimethyl-2-((R)-1-methylpiperidine-2-carbo-xamido)pentanamido)-4-methylpentyl)thiazole-4-carboxamido)-2-methyl-5-phenylpentanoate]	9.70	0.219	0.042	0.28	10.52	0.03	0.158	0.162	< 8.00	0.078	0.043	0.218	pIC50 [1]: 9.70; pIC50 [4]: 10.52
CC[C@H](C)[C@H](NC(=O)C12CC(NC)(C1)C2)C(=O)N(C)[C@H](C[C@@H](OC(C)=O)c1nc(C(=O)N[C@@H](Cc2ccccc2)C[C@H](C)C(=O)OC)cs1)C(C)C [Tb8, Methyl(2S,4R)-4-(2-((1R,3R)-1-acetoxy-3-((2S,3S)—N,3-dimethyl-2-(3-(methylamino)-bicyclo[1.1.1]pentane-1-carboxamido)pentanamido)-4-methylpentyl)thiazole-4-carboxamido)-2-methyl, 5-phenyl-pentanoate-phenylpentanoate]	< 7.30	105	75	96.7	< 7.30	33.3	121	125	< 7.30	9.62	52.1	164	
